Like-named read-outs stand apart in the source and are kept apart here.
Columns and labels:
CDK3/cyclin E = target: T1, CDK3/cyclin E (Homo sapiens, UniProt Q00526); conditions: cited from earlier work
T1 construct: purchased Reaction Biology Corp

ROCK1 = target: T2, ROCK1 (Homo sapiens, UniProt Q13464); conditions: cited from earlier work
T2 construct: purchased Reaction Biology Corp

TLK1 = target: T3, TLK1 (Homo sapiens, UniProt Q9UKI8); conditions: cited from earlier work
T3 construct: purchased Reaction Biology Corp
T3 sequence (Q9UKI8 1-766): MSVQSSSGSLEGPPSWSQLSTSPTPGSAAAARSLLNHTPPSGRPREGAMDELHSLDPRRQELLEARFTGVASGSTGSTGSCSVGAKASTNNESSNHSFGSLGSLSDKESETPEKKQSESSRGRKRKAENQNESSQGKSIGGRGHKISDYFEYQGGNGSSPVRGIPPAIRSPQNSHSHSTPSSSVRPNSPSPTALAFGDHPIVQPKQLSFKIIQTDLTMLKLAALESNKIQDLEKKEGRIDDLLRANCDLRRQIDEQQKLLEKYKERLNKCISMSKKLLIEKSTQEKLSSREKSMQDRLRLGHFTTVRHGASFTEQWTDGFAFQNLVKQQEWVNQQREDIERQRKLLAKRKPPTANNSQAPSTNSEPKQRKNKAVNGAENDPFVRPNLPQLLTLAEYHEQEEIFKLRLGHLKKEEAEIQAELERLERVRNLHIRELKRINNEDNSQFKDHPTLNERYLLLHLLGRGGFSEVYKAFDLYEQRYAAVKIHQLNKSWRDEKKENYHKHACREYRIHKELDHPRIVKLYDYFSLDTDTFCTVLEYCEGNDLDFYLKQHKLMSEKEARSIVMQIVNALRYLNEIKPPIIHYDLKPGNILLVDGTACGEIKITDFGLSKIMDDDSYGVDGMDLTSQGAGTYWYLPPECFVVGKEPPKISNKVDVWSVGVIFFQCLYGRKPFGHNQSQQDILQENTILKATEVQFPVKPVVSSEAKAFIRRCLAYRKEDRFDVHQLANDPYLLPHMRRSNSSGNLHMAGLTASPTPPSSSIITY

TRKC = target: T4, TRKC (Homo sapiens, UniProt Q16288); conditions: cited from earlier work
T4 construct: purchased Reaction Biology Corp

AMPK(A2/B2/G1) [1] = target: T5, AMPK(A2/B2/G1) (Homo sapiens, UniProt O43741+P54619+P54646); assay: Kinase panel assay (radiolabelled); type: biochemical; conditions: 30 μM compound, ATP 10 μM; duplicates Data 1/Data 2; read-out: % Enzyme Activity (relative to DMSO controls)
T5 construct: purchased Reaction Biology Corp

AMPK(A2/B2/G1) [2] = target: T6, AMPK(A2/B2/G1) (Homo sapiens, UniProt P54646); assay: Kinase panel assay (radiolabelled); type: biochemical; conditions: 30 μM compound, ATP 10 μM; duplicates Data 1/Data 2
T6 construct: purchased Reaction Biology Corp

DNA-PK = target: T7, DNA-PK (Homo sapiens, UniProt P78527); assay: Kinase panel assay (radiolabelled); type: biochemical; conditions: 30 μM compound, ATP 10 μM, duplicates Data 1/Data 2
T7 construct: purchased Reaction Biology Corp

PDK1/PDHK1 = target: T8, PDK1/PDHK1 (Homo sapiens, UniProt Q15118); assay: Kinase panel assay (radiolabelled); type: biochemical; conditions: 30 μM compound, ATP 10 μM, duplicates Data 1/Data 2
T8 construct: purchased Reaction Biology Corp
Experimental: (§1) Every inhibitory activity of tested compounds was measured by radiolabelled method of Reaction Biology Corp). The radiolabelled ATP ([γ-^33P] ATP) replaced a substrate with ^33P-phosphorylated substrate so that the activity of a kinase was measured from the radiolabelled phosphorylated substrate. Kinase panel assay was tested at 30 μM testing compounds with an ATP concentration of 10 μM and a substrate concentration of 10 μM. % Residual activity against GSK3β was measured at 10 uM compounds 1 and 2. […] Curve fits of control compounds were performed where the enzyme activities at the highest concentration of compounds were less than 65%. The concentration of DMSO was controlled and raw data, % kinase activity was calculated relative to DMSO controls.

PDK2/PDHK2 = target: T9, PDK2/PDHK2 (Homo sapiens, UniProt Q15119); assay: Kinase panel assay (radiolabelled); type: biochemical; conditions: 30 μM compound, ATP 10 μM, duplicates Data 1/Data 2
T9 construct: purchased Reaction Biology Corp
Experimental: as §1

PDK3/PDHK3 = target: T10, PDK3/PDHK3 (Homo sapiens, UniProt Q15120); assay: Kinase panel assay (radiolabelled); type: biochemical; conditions: 30 μM compound, ATP 10 μM, duplicates Data 1/Data 2
T10 construct: purchased Reaction Biology Corp
T10 sequence (Q15120 whole entry): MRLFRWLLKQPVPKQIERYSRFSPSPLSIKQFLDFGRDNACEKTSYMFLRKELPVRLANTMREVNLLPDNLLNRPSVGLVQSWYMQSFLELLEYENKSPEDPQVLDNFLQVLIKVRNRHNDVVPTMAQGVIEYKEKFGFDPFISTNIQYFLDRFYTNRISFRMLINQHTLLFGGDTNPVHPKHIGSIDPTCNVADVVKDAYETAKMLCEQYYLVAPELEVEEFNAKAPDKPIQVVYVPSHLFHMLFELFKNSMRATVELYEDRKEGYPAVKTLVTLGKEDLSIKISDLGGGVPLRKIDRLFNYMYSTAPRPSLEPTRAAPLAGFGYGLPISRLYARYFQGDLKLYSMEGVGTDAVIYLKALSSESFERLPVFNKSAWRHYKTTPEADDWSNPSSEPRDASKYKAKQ
Experimental: as §1

TRPM7/CHAK1 = target: T11, TRPM7/CHAK1 (Homo sapiens, UniProt Q96QT4); assay: Kinase panel assay (radiolabelled); type: biochemical; conditions: 30 μM compound, ATP 10 μM, duplicates Data 1/Data 2
T11 construct: purchased Reaction Biology Corp
Experimental: as §1

JNK1 = target: T12, JNK1 (Homo sapiens, UniProt P45983); assay: Kinase panel assay (radiolabelled); type: biochemical; conditions: ATP 10 μM
T12 construct: purchased Reaction Biology Corp
T12 sequence (P45983 whole entry): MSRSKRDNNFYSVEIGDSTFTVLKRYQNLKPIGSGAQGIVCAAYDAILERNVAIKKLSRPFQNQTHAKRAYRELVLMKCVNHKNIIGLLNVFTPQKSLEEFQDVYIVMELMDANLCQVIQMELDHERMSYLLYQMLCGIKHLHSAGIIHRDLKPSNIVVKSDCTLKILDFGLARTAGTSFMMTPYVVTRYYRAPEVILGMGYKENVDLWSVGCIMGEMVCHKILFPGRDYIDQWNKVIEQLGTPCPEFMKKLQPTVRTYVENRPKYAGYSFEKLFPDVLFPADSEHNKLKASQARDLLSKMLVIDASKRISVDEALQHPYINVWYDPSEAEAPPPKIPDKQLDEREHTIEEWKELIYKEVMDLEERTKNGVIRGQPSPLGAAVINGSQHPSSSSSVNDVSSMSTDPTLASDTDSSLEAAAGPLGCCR

MST3/STK24 = target: T13, MST3/STK24 (Homo sapiens, UniProt Q9Y6E0); assay: Kinase panel assay (radiolabelled); type: biochemical; conditions: ATP 10 μM
T13 construct: purchased Reaction Biology Corp
T13 sequence (Q9Y6E0 whole entry): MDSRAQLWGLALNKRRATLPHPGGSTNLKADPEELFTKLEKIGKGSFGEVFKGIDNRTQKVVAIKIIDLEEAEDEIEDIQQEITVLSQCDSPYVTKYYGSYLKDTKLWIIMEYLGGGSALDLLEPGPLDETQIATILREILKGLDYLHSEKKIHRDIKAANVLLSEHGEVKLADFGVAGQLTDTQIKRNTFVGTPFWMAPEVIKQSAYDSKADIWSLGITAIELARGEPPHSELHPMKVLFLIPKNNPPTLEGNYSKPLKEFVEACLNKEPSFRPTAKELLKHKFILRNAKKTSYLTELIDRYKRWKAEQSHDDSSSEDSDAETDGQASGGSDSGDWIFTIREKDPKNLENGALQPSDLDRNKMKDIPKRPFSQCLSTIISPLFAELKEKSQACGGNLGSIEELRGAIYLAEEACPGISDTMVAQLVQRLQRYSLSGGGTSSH

TRKA (G595R) = target: T14, TRKA (G595R) (Homo sapiens, UniProt P04629, G595R); assay: Kinase panel assay (radiolabelled); type: biochemical; conditions: 30 μM compound, ATP 10 μM, duplicates Data 1/Data 2
T14 construct: purchased Reaction Biology Corp

TRKB = target: T15, TRKB (Homo sapiens, UniProt Q16620); assay: Kinase panel assay (radiolabelled); type: biochemical; conditions: ATP 10 μM
T15 construct: purchased Reaction Biology Corp
T15 sequence (Q16620 32-822): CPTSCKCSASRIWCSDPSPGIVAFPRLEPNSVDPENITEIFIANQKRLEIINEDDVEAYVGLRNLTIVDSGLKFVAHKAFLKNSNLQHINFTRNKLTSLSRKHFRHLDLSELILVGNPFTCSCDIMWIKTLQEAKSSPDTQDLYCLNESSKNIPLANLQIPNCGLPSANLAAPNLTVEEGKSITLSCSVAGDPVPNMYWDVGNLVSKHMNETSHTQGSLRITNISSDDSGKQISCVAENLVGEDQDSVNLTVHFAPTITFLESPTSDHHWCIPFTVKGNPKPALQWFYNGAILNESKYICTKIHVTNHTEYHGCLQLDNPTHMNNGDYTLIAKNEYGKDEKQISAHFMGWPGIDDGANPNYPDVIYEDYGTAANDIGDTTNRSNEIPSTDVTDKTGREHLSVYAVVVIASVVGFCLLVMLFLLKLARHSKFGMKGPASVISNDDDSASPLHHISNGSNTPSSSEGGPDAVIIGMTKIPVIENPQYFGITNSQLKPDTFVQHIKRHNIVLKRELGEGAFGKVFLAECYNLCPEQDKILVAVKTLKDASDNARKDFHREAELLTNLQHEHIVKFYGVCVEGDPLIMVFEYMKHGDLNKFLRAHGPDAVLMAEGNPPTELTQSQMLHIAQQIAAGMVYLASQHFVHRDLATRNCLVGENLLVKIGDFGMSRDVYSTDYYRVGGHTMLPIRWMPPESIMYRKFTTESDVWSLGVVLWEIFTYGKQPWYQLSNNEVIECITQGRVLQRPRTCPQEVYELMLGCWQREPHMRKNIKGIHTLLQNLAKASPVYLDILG

PI3KC2A = target: T16, PI3KC2A (Homo sapiens, UniProt O00443); assay: Kinase panel assay (lipid kinase); type: biochemical; conditions: 30 μM compound, ATP 10 μM, duplicates Data 1/Data 2
T16 construct: purchased Reaction Biology Corp
Experimental: as §1

PI3KC3 = target: T17, PI3KC3 (Homo sapiens, UniProt Q8NEB9); assay: Kinase panel assay (lipid kinase); type: biochemical; conditions: 30 μM compound, ATP 10 μM, duplicates Data 1/Data 2
T17 construct: purchased Reaction Biology Corp
Experimental: as §1

PI4K2A = target: T18, PI4K2A (Homo sapiens, UniProt Q9BTU6); assay: Kinase panel assay (lipid kinase); type: biochemical; conditions: 30 μM compound, ATP 10 μM, duplicates Data 1/Data 2
T18 construct: purchased Reaction Biology Corp
T18 sequence (Q9BTU6 whole entry): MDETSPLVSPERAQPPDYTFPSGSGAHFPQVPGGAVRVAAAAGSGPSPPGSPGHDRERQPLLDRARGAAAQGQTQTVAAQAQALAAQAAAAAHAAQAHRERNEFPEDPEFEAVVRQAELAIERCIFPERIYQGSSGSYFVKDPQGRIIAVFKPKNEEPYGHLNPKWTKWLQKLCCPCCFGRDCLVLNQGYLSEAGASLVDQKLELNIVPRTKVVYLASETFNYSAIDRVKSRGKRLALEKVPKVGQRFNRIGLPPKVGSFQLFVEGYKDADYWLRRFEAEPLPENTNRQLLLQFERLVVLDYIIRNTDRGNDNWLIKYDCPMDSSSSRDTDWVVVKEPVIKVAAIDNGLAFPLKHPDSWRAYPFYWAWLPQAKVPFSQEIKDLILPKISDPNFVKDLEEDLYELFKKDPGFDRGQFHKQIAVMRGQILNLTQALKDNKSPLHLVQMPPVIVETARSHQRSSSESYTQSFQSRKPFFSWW
Experimental: as §1

PIP5K1A = target: T19, PIP5K1A (Homo sapiens, UniProt Q99755); assay: Kinase panel assay (lipid kinase); type: biochemical; conditions: 30 μM compound, ATP 10 μM, duplicates Data 1/Data 2
T19 construct: purchased Reaction Biology Corp
T19 sequence (Q99755 whole entry): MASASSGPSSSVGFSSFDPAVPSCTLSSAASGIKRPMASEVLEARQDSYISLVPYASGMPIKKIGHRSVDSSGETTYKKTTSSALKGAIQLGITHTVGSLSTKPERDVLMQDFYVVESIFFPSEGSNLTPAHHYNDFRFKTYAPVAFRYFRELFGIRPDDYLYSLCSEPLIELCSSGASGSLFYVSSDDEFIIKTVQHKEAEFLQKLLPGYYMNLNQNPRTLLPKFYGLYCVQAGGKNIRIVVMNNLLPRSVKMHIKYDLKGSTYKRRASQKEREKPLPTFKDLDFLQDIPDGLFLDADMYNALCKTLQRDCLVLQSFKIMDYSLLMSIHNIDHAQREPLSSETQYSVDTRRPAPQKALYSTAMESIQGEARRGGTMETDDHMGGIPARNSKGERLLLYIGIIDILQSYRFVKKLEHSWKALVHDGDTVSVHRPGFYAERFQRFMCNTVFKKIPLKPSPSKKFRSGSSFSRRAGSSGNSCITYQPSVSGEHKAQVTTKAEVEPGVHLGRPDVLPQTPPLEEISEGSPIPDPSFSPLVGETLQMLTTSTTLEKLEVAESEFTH
Experimental: as §1

PIP5K1C = target: T20, PIP5K1C (Homo sapiens, UniProt O60331); assay: Kinase panel assay (lipid kinase); type: biochemical; conditions: 30 μM compound, ATP 10 μM, duplicates Data 1/Data 2
T20 construct: purchased Reaction Biology Corp
Experimental: as §1

PI3Kb (p110b/p85a) = target: T21, PI3Kb (p110b/p85a) (Homo sapiens, UniProt P42338); assay: Kinase panel assay (lipid kinase); type: biochemical; conditions: 30 μM compound, ATP 10 μM, duplicates Data 1/Data 2
T21 construct: purchased Reaction Biology Corp

PI3K (p110a(E542K)/p85a) = target: T22, PI3K (p110a(E542K)/p85a) (Homo sapiens, UniProt P42336, E542K); assay: Kinase panel assay (lipid kinase); type: biochemical; conditions: 30 μM compound, ATP 10 μM, duplicates Data 1/Data 2
T22 construct: purchased Reaction Biology Corp
T22 sequence (P42336 whole entry E542K): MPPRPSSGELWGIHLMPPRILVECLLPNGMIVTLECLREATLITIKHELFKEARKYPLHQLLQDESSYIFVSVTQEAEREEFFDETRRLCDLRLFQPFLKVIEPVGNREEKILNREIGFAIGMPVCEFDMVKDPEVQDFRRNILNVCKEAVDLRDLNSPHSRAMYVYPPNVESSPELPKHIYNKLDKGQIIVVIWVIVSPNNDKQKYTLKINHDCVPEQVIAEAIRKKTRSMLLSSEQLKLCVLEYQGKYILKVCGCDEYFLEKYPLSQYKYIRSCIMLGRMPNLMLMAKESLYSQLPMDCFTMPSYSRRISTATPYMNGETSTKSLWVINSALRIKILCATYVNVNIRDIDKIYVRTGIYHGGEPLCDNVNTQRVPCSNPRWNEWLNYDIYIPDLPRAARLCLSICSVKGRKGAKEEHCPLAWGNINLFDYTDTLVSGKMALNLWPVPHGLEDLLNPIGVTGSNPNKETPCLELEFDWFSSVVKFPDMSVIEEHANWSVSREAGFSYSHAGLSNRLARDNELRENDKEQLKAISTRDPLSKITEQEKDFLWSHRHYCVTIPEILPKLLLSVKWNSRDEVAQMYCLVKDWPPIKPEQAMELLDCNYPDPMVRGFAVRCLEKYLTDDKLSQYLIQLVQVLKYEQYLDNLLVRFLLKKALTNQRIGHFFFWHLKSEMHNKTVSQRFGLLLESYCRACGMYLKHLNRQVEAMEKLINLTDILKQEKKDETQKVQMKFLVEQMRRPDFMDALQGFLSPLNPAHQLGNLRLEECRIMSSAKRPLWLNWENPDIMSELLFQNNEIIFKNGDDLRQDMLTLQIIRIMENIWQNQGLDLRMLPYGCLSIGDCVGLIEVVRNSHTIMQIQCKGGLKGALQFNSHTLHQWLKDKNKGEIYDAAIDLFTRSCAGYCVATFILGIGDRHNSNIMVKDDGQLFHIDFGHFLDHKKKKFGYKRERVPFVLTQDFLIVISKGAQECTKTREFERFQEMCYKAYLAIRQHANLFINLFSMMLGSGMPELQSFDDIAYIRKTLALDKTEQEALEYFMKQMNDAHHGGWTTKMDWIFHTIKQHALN
T22 sequence (P27986 whole entry partner): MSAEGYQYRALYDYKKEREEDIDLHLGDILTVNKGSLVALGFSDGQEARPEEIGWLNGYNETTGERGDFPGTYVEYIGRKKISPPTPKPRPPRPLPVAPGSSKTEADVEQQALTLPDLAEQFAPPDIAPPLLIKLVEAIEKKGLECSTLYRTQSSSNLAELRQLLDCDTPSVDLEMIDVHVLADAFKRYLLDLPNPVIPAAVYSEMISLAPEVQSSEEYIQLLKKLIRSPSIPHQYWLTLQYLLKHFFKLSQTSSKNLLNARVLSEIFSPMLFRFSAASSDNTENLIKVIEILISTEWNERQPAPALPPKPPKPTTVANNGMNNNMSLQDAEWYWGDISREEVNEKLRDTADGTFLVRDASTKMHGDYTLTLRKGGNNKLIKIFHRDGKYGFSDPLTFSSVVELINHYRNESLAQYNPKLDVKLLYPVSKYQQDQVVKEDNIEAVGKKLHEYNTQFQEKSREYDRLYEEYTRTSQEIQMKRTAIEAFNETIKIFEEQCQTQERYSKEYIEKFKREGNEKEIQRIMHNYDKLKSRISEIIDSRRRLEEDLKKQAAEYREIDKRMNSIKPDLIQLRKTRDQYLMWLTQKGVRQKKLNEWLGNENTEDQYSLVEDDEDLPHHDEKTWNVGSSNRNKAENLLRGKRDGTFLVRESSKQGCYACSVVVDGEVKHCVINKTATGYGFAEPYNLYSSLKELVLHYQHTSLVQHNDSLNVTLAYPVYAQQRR

[3] = target: T23, PI3K (p110a(H1047R)/p85a) (Homo sapiens, UniProt P42336, H1047R); assay: Kinase panel assay (lipid kinase); type: biochemical; conditions: 30 μM compound, ATP 10 μM, duplicates Data 1/Data 2
T23 construct: purchased Reaction Biology Corp
T23 sequence (P42336 whole entry H1047R): as the sequence (P42336 whole entry E542K) above, with K542E, H1047R counted along it
T23 sequence (P27986 whole entry partner): as the sequence (P27986 whole entry partner) above

[4] = read-out: % Enzyme Activity (relative to DMSO controls)
[5] = 30 μM compound, duplicates Data 1/Data 2
[6] = 30 μM compound, duplicates Data 1/Data 2, read-out: % Enzyme Activity (relative to DMSO controls)
[7] = 30 μM, average ± SD, read-out: % Residual Activity at 30 μM

## O=C1C=CC2(C=C1)OCC(Cc1cc(C(F)(F)F)cc(C(F)(F)F)c1)C(=O)N2c1ccccc1 (racemic) [1c]
CDK3/cyclin E
  % Residual Activity at 30 μM: 59.3 ± 1.2%
ROCK1
  % Residual Activity at 30 μM: 97 ± 2.9%
TLK1
  % Residual Activity at 30 μM: 58.0 ± 0.9%
TRKC
  % Residual Activity at 30 μM: 97.9 ± 0.2%

## O=C1C=CC2(C=C1)OCC(Cc1cn(-c3cccc(Cl)c3)nn1)C(=O)N2c1ccccc1 (stereo not shown) [2d, 3-((1-(3-Chlorophenyl)-1H-1,2,3-triazol-4-yl)methyl)-5-phenyl-1-oxa-5-azaspiro[5.5]undeca-7,10-diene-4,9-dione]
AMPK(A2/B2/G1) [1]
  remaining activity at 30 µM: 94%
AMPK(A2/B2/G1) [2]
  % Enzyme Activity (relative to DMSO controls): 89.86%
DNA-PK
  % Enzyme Activity (relative to DMSO controls): 101.60%
DNA-PK; [4]
  remaining activity at 30 µM: 103%
PDK1/PDHK1
  % Enzyme Activity (relative to DMSO controls): 85.01%
PDK1/PDHK1; [4]
  remaining activity at 30 µM: 85.6%
PDK2/PDHK2
  % Enzyme Activity (relative to DMSO controls): 63.30%
PDK2/PDHK2; [4]
  remaining activity at 30 µM: 64.3%
PDK3/PDHK3
  % Enzyme Activity (relative to DMSO controls): 82.28%
PDK3/PDHK3; [4]
  remaining activity at 30 µM: 85.9%
TRPM7/CHAK1
  % Enzyme Activity (relative to DMSO controls): 63.76%
TRPM7/CHAK1; [4]
  remaining activity at 30 µM: 67.5%
JNK1; [5]
  % Enzyme Activity (relative to DMSO controls): 82.67%
JNK1; [6]
  remaining activity at 30 µM: 82.7%
JNK1; [7]
  remaining activity at 30 µM: 82.7 ± 0.1%
MST3/STK24; [5]
  % Enzyme Activity (relative to DMSO controls): 89.43%
MST3/STK24; [6]
  remaining activity at 30 µM: 94.2%
MST3/STK24; [7]
  remaining activity at 30 µM: 91.8 ± 3.4%
TRKA (G595R)
  % Enzyme Activity (relative to DMSO controls): 99.08%
TRKA (G595R); [4]
  remaining activity at 30 µM: 103%
TRKB; [5]
  % Enzyme Activity (relative to DMSO controls): 101.29%
TRKB; [6]
  remaining activity at 30 µM: 103%
TRKB; [7]
  remaining activity at 30 µM: 102 ± 1.3%
PI3KC2A
  % Enzyme Activity (relative to DMSO controls): 123.51%
PI3KC2A; [4]
  remaining activity at 30 µM: 122%
PI3KC3
  % Enzyme Activity (relative to DMSO controls): 98.59%
PI3KC3; [4]
  remaining activity at 30 µM: 99.8%
PI4K2A
  % Enzyme Activity (relative to DMSO controls): 74.47%
PI4K2A; [4]
  remaining activity at 30 µM: 75.9%
PIP5K1A
  % Enzyme Activity (relative to DMSO controls): 84.84%
PIP5K1A; [4]
  remaining activity at 30 µM: 86%
PIP5K1C
  % Enzyme Activity (relative to DMSO controls): 87.90%
PIP5K1C; [4]
  remaining activity at 30 µM: 88.2%
PI3Kb (p110b/p85a)
  % Enzyme Activity (relative to DMSO controls): 86.58%
PI3Kb (p110b/p85a); [4]
  remaining activity at 30 µM: 86.3%
PI3K (p110a(E542K)/p85a)
  % Enzyme Activity (relative to DMSO controls): 100.20%
PI3K (p110a(E542K)/p85a); [4]
  remaining activity at 30 µM: 103%
[3]
  % Enzyme Activity (relative to DMSO controls): 131.08%
[3]; [4]
  remaining activity at 30 µM: 132%

Source: publication PMC7719162, “Positioning of an unprecedented spiro[5.5]undeca ring system into kinase inhibitor space” (Scientific Reports, 2020)
